Numbers after ± are expanded uncertainties.
Tests used:
[1] = 298.15 K, Liquid; for viscosity: Capillary tube (Ostwald / Ubbelohde) method
[2] = 298.15 K; 101.7 kPa; Liquid mixture 1; Pendant drop shape

## Cc1ccccc1 [toluene]
[1]; 101 kPa
  viscosity: 0.554 ± 0.04 mPa·s
[1]; 101.7 kPa, Vibrating tube method
  mass density: 860.8 ± 2 kg/m3

## Cc1ccccc1 [toluene] + O
[2]
  interfacial tension: 36.2 ± 3.6 mN/m

## O [water]
[1]; 101.7 kPa
  viscosity: 0.8958 ± 0.041 mPa·s
